Data reported in US12122762B2, “Crystal form a of NHE3 inhibitor, preparation method therefor and application thereof” (SHENZHEN RENTAI PHARMATECH LTD., priority 2019, dated 2024).

How the values were obtained:
Type in all cases: physicochemical
[1] = High-humidity stability (75% RH, 40° C.), content by HPLC peak area normalization
Protocol: (§1) Follow tests are performed for the amorphous bulk pharmaceutical chemical of embodiment 1 and the crystal form A prepared in embodiment 2: • (1) Light stability: the test sample is placed in an environment having a temperature of 25° C. and a light condition of 4500 Lux for 5 days and 10 days, respectively, to test the stability of the crystal form. Samples are collected at the same point at 5th and 10th day to measure content by HPLC peak area normalization method. […] Samples are collected at the same point at 5th and 10th day to measure content by HPLC peak area normalization method. […] Samples are collected at the same point at 5th and 10th day to measure content by HPLC peak area normalization method.

[2] = High-temperature stability (60° C.), content by HPLC peak area normalization
Protocol: as §1

[3] = Hygroscopicity study by dynamic vapor sorption (DVS); details: 25° C.
Protocol: • Model: BRUKER D8 DISCOVER (BRUKER, Germany) • Method: Cu target Ka, voltage: 40 KV, current: 40 mA, test angle: 3-45°, scanning step: 0.02, exposure time: 0.2 S, slit width of light pipe: 1 mm, slit width of detector: 2.7 mm. X-Ray Single Crystal Diffractometer SXRD • Model: BRUKER D8 QUEST (BRUKER, Germany) • Method: Cu target, voltage: 40 KV, current: 30 mA Differential Scanning Calorimeter DSC • Model: TA 250 (TA Instruments, US) • Method: heating at a rate of 10° C./min. Thermal Gravimetric Analysis TGA • Model: TA 550 (TA Instruments, US); • Method: heating at a rate of 10° C./min. Dynamic Vapor Sorption DVS • Model: DVS intrinsic (SMS, British); • Method: 25° C., relative humidity is stepped up at a rate of 10% per step, and the judgment standard is change in moisture content is <0.002% over a 10-minute period. Light Incubator • Model: MGC-100 (Shanghai Yiheng Scientific Instrument Co., Ltd.) Ultrasound Equipment • Model: KQ-3200 (Shanghai Alloy Ultrasonic Equipment Co., Ltd.) Programmable Temperature and Humidity Chamber for Drug Stability • Model: CMA-100C (Shanghai Puhan Precision Equipment Co., Ltd.) […]

[4] = Light stability (25° C., 4500 Lux), content by HPLC peak area normalization
Protocol: as §1

[5] = Hygroscopicity of compound of formula (I) prepared according to CN103819403B; details: within 10 min under a humidity of RH 45%
Source text: The inventors of the present invention prepared the compound of formula (I) according to the preparation method as described in CN103819403B, and carried out analysis. […] Especially, the prepared compound of formula (I) was found easy to decompose in environment of high temperature or high humidity or under strong lights, causing rapid decrease in the content of active ingredients. […] Therefore, a strict management would be required during use of the compound of formula (I), rendering the compound unsuitable for use as a bulk pharmaceutical chemical.

Structure (SMILES) | Purity (%) after high-humidity stability test ([1]; 5 days) | Purity (%) after high-humidity stability test ([1]; 10 days) | Purity (%) after high-temperature stability test ([2]; 5 days) | Purity (%) after high-temperature stability test ([2]; 10 days) | weight increase due to moisture absorption ([3]; RH 0 to RH 90%, RH 10% per step, 10 min per step) | Purity (%) after light stability test ([4]; 5 days) | Purity (%) after light stability test ([4]; 10 days) | weight increase because of hygroscopicity [5] | weight change in each step of 10 min ([3]; each RH 10% step of 10 min)
CN1Cc2c(Cl)cc(Cl)cc2[C@@H](c2cccc(S(=O)(=O)NCCOCCOCCNC(=O)NCCCCNC(=O)NCCOCCOCCNS(=O)(=O)c3cccc([C@@H]4CN(C)Cc5c(Cl)cc(Cl)cc54)c3)c2)C1 [amorphous bulk pharmaceutical chemical] | 81.63% | 79.78% | 61.62% | 58.98% | 7% | 72.54% | 71.99% |  | 
CN1Cc2c(Cl)cc(Cl)cc2[C@@H](c2cccc(S(=O)(=O)NCCOCCOCCNC(=O)NCCCCNC(=O)NCCOCCOCCNS(=O)(=O)c3cccc([C@@H]4CN(C)Cc5c(Cl)cc(Cl)cc54)c3)c2)C1 [compound of formula (I)] |  |  |  |  |  |  |  | up to 2% | 
CN1Cc2c(Cl)cc(Cl)cc2[C@@H](c2cccc(S(=O)(=O)NCCOCCOCCNC(=O)NCCCCNC(=O)NCCOCCOCCNS(=O)(=O)c3cccc([C@@H]4CN(C)Cc5c(Cl)cc(Cl)cc54)c3)c2)C1 [crystal form A] | 98.52% | 98.56% | 98.64% | 98.72% |  | 91.78% | 89.07% |  | less than 0.02%
